Drawing on ChEMBL document CHEMBL4004843, “"Addition" and "Subtraction": Selectivity Design for Type II Maternal Embryonic Leucine Zipper Kinase Inhibitors” (J Med Chem, 2017), this text covers IC50 for 9 compounds.

The target in test [1] is Rho-associated protein kinase 2 (Homo sapiens, UniProt O75116). As to the kind of experiment: Inhibition of ROCK2 (unknown origin).
The target in test [2] is Maternal embryonic leucine zipper kinase (Homo sapiens, UniProt Q14680). Description: Inhibition of MELK (unknown origin) containing kinase domain and UBA domain using STK S1 as substrate after 20 mins by HTRF assay.
Sequence of Maternal embryonic leucine zipper kinase (Q14680 whole entry, the tested form may be a part): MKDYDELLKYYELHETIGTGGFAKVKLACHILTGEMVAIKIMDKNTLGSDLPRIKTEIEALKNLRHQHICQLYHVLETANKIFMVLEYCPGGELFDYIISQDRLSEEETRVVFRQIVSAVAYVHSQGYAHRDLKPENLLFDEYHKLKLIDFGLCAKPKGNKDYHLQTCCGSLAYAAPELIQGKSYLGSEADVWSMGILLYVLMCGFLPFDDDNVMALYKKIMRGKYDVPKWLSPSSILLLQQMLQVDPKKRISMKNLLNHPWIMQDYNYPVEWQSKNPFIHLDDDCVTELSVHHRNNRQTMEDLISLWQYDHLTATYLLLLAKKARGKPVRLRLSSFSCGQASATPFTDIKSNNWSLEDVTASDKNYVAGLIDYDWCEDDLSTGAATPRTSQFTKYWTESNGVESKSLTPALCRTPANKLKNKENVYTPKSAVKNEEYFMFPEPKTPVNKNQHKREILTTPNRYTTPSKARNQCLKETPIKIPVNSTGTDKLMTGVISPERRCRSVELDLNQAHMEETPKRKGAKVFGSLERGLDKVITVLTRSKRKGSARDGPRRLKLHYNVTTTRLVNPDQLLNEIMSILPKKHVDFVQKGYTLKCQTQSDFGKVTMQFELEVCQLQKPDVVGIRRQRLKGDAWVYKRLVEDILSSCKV

Sequence of Rho-associated protein kinase 2 (O75116 whole entry, the tested form may be a part): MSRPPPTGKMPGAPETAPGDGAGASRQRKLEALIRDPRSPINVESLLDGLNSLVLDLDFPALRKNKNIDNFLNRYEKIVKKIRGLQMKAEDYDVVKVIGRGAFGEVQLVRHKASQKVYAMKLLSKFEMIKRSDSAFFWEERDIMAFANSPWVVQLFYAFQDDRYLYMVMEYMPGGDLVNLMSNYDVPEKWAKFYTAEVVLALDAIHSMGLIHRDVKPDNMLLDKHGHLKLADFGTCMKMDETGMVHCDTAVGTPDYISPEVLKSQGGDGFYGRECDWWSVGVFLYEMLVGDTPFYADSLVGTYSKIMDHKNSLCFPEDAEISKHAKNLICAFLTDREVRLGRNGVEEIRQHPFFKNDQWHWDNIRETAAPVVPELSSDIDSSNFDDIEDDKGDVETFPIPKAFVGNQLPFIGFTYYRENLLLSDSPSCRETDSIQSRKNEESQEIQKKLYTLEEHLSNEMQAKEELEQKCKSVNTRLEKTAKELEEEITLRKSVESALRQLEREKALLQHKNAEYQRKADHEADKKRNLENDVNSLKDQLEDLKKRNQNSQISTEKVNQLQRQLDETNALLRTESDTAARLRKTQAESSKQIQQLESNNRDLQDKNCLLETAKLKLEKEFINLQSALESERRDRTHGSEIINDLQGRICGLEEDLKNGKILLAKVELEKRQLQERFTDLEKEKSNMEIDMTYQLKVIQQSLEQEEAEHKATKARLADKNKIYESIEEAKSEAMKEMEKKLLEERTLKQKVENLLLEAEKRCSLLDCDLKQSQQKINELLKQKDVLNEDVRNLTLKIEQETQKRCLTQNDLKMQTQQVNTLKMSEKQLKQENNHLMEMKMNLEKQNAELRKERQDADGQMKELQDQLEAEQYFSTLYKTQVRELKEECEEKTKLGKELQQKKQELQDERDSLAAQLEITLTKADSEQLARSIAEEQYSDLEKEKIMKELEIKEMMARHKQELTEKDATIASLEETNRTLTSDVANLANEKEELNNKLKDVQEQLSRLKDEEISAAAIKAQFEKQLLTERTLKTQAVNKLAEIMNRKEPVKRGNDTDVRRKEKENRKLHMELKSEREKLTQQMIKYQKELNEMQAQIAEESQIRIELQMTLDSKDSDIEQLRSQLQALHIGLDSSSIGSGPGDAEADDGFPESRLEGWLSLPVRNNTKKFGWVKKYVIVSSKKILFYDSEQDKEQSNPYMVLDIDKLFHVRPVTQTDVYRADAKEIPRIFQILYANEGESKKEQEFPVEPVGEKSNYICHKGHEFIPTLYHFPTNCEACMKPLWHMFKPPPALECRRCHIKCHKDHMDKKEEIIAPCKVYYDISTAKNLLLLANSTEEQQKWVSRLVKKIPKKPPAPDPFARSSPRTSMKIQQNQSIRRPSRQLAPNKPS

For `O=C(CNC(=O)c1ccc(-c2cnccc2OCC2CCNCC2)cc1)Nc1ccccc1`, the IC50 in test [1] was found to be 360 nM; in test [2] it was 740 nM. For the compound `O=C(NCc1nc2ccccc2[nH]1)c1ccc(-c2cnccc2OCC2CCNCC2)cc1`, the IC50 in test [2] amounted to 12 nM. On the same count and under the same terms, as for `CNc1ncc(-c2ccc(C(=O)NCc3nc4ccccc4[nH]3)cc2)c(OCC2CCNCC2)n1`, the figure is 9.2 nM.

For `O=C(NCc1nc2ccccc2[nH]1)c1ccc(-c2cnc(Nc3ccccc3)nc2OCC2CCNCC2)cc1`, the IC50 in test [2] turned out to be 1.1 nM. Regarding `CNc1ncc(-c2ccc(C(=O)NCc3nc4ccc(OC)cc4[nH]3)cc2)c(OCC2CCNCC2)n1`, half-maximal inhibition in test [2] (IC50) required 1.5 nM. This IC50 and that of the compound before are within 1.5-fold of each other.

`O=C(CNC(=O)c1ccc(-c2cnc(Nc3ccccc3)nc2OCC2CCNCC2)cc1)Nc1ccccc1` came in with an IC50 in test [2] of 8.8 nM. As for `COc1ccc2nc(CNC(=O)c3ccc(-c4cnccc4OCC4CCNCC4)cc3)[nH]c2c1`, the IC50 amounted to 7800 nM in test [1] and 1.5 nM in test [2]. As to `CNc1ncc(-c2ccc(C(=O)NCC(=O)Nc3ccccc3)cc2)c(OCC2CCNCC2)n1`, the IC50 in test [2] stood at 120 nM. In test [2], `COc1ccc2nc(CNC(=O)c3ccc(-c4cnc(Nc5ccccc5)nc4OCC4CCNCC4)cc3)[nH]c2c1` had an IC50 of 0.15 nM.

The IC50 is the midpoint of a concentration-inhibition curve.
